According to patent publication US10638779B2, “Hemiacetyl proflavors” (FIRMENICH SA, priority 2014, dated 2020):

Columns and labels:
[1] = Assessment of hydrolysis rate at pH 3.0 (acetaldehyde release, UV/Vis 276 nm); assay type: physicochemical; conditions: for Acetaldehyde release rate relative to Comparative Samples 2-5: pH 3.0; for Half life (s) at pH 3.0 / half-life: pH 3.0 citrate buffer, stirring at 200 rpm, first order release of acetaldehyde, measured for this work; for half-life: read-out: Half life (s) at pH 3.0 (converted)
Protocol: Assessment of Hydrolysis Rate at pH 3.0
Instant beverage applications require rapid hydrolysis of the precursor molecules in order to rapidly release acetaldehyde. Because such beverages might be consumed immediately upon preparation, it is desired for the release to be as rapid as possible.
A pH 3.0 buffer solution was prepared by adding 16.43 g citric acid (CAS 77-92-9) and 4.26 g disodium citrate (CAS 144-33-2) to 1 L of deionized water. Aliquots of the Examples 1, 2 and 10 preparations were added to the buffer solution within a Distek 2100B USP 2 dissolution system stirring at 200 rpm. The concentration of acetaldehyde in solution was monitored as a function of time using a UV/Vis spectrometer probe which measured absorbance at 276 nm every 1 second. Results for comparative samples were taken from work by Gassenmeier et al.. A sample of acetaldehyde diethyl acetal was also measured directly and the result was similar to that reported by Gassenmeier et al. Examples 1, 2 and 10 released acetaldehyde faster than Comparative Samples 2-5.

[2] = Assessment of hydrolysis rate under spray drying feed conditions (pH 8.0 buffer/limonene emulsion); assay type: physicochemical; conditions: for t50 at pH 8.0 (time to 50% of the maximum absorbance): pH 8.0 phosphate buffer, 0.20 g in 0.8 g limonene added to 10 g buffer (emulsion); for t50 values relative to Comparative Sample 1: pH 8.0 emulsion
Protocol: Assessment of Hydrolysis Rate Under Spray Driving Feed Conditions
Acetaldehyde precursors suitable for rendering into dry powders must avoid releasing significant levels of acetaldehyde during various stages of processing. In particular they should resist hydrolysis during the preparation of a spray drying feed emulsion, which can be neutral to basic pH and can contain a significant volume fraction of an oil phase.
A pH 8.0 buffer solution was prepared by adding 49.92 g disodium phosphate heptahydrate (CAS 7782-85-6) and 1.93 g monosodium phosphate (CAS 7558-80-7) to 1 L of deionised water. Aliquots of 0.20 g of the Examples 1, 2 and 10 preparations were dissolved in 0.8 g of limonene (CAS 5989-25-7) added to 10 g of the buffer solution within a 30 mL Erlenmeyer flask containing a stir bar. The concentration of acetaldehyde in solution was monitored as a function of time using a UV/Vis spectrometer probe measuring absorbance at 276 nm. Stirring was periodically stopped to allow oil droplets to rise to the surface and collect an unobscured absorbance reading of the aqueous solution. Release followed mixed zero and first order kinetics. t50 (the time to 50% of the maximum absorbance) values are reported in Table 2. Comparative Sample 1 has t50 of 2.1 minutes, which is so short that a person skilled in the art would consider this compound at risk of experiencing a problematic degree of hydrolysis during processing.

| Structure (SMILES) | Acetaldehyde release rate relative to Comparative Samples 2-5 [1] | Half life (s) at pH 3.0 [1] | t50 at pH 8.0 (time to 50% of the maximum absorbance) [2] | half-life [1] | t50 values relative to Comparative Sample 1 [2] |
| --- | --- | --- | --- | --- | --- |
| CCOC(C)OC(C)=O (stereo not drawn) [Example 10, 1-ethoxyethyl acetate, reference compound] | faster | 31 s | 2.1 min |  |  |
| CCOC(C)OC(=O)CCCCC(=O)OC(C)OCC (stereo not drawn) [Example 2, Bis(1-ethoxyethyl) adipate] | faster |  | 44.6 min | 185 s | longer |
| CCOC(C)OCC [Comparative Sample 2, Acetaldehyde diethyl acetal, reference compound] |  | 539 s |  |  |  |
| CCOC(C)OC(=O)CCC(=O)OC(C)OCC (stereo not drawn) [Example 1, Bis(1-ethoxyethyl) succinate] | faster |  | 14.0 min | 96 s | longer |
